Assay results as given in patent publication US20160050895A1, “TRANSGENIC NON-HUMAN ORGANISMS WITH NON-FUNCTIONAL TSPO GENES” (AUSTRALIAN NUCLEAR SCIENCE AND TECHNOLOGY ORGANIZATION, priority 2013, published 2016).

Test system: TSPO
Test: Receptor film autoradiography of tissue sections with [3H]PK11195 and [125I]CLINDE
Format: binding, mouse
Conditions: spleen, kidney, testis sections from TSPO-/- mice; 3 nM [125I]CLINDE, 1 nM [3H]PK11195
Protocol: Snap-frozen tissues were sectioned at 20 μm in a cryostat, thaw mounted on poly-L-lysine-coated slides and stored at −80° C. until day of experiment. On the day of the experiment, slides were thawed at room temperature and air dried with a cool stream of air. Total and non-specific binding were determined by incubation with 1 nM of 3H-PK11195 with or without the presence of 3 μM of PK11195 in 130 mM TRIS-HCl buffer (pH 7.4) at room temperature for 20 minutes. Following incubation, the slides were briefly dipped twice in 130 mM TRIS-HCl buffer, washed twice for 5 minutes in fresh 130 mM TRIS-HCl at room temperature. […] Images were analysed with Quantity One imaging analysis program (Bio-Rad, Hercules, Calif. USA); to assess the level of 3H-PK11195 binding, regions of interest were drawn over the tissue and an average optical density/mm^2 was calculated. […]
The organs including brain, retina, heart, kidney and testes used for film autoradiography were dissected from wild-type (TSPO^+/+), heterozygous (TSPO^+/−), and homozygous (TSPO^−/−) mice and snap-frozen in liquid nitrogen. […] Tritium standards (Amersham Biosciences, Uppsala, Sweden) co-exposed with the organ sections on each Hyperfilm-^3H (Kodak Film) at 4° C. for 60 days, were used to quantify the autoradiographically measured binding. […]

CC[C@@H](C)N(C)C(=O)c1cc2ccccc2c(-c2ccccc2Cl)n1 [[^3H]PK11195]
binding in TSPO-/- tissue: at background level and not displaceable
